Laboratory results: patent US20240226078A9, “ENHANCEMENT OF MICROFRACTURE FOR REPAIRING CARTILAGE DEFECTS VIA WNT INHIBITION” (University of Pittsburgh - Of the Commonwealth System of …, priority 2021, published 2024)
Converted amounts (≈) assume the structure as drawn.

Tests used:
[1] = tested on: human bone marrow-derived stem cell (hBMSC)-derived cartilage; experiment: COL1 expression and deposition in hBMSC-derived cartilage under Wnt inhibition (gene expression, immunofluorescence); assay type: cell-based
Source text: FIG. 1 illustrates a comparison of COL1 gene expression in Control and Wnt inhibition (Optimized) group. […] B) Collagen type 1 detection by immunofluorescence. Control group (i-iii); Optimized group (iv-vi). […] Bar −50 μm. […] In general, as used herein small molecule (therapeutic) compounds may, for example, have a molecular weight below 1.5 kDa or below 1.0 kDa.

[2] = tested on: hBMSCs/blood clot construct; experiment: In vitro MFx model: chondrogenesis of hBMSCs/blood clot construct; assay type: cell-based, human; settings: expected
Source text: The cause of post-Mfx fibrocartilage formation remains unclear. An in vitro model hereof may be used to simulate post-MFx tissue remodeling for further study and/or optimization of methodologies hereof Since harvesting human post-MFx clots is not feasible, as one of the initial steps toward human studies/clinical trials, one may simulate such a post-MFx clot by encapsulating stem cells such as hBMSCs within a clot derived from human peripheral blood as described herein. Optimization studies hereof may thus proceed via such a novel in vitro model which simulates post-MFx fibrocartilage formation (see FIG. 3) and assess treatment efficacy. As illustrated schematically in FIG. 4, to mimic the post-MFx clot, stem cells such as human bone marrow-derived stem cells (hBMSCs), the likely progenitor cells contributing to MFx repair, are encapsulated within clots derived from human peripheral blood. hBMSCs/blood clot may be differentiated using, for example, a chondroinductive factor such as insulin growth factor-1 (IGF-1), one of the major synovial fluid chondroinductive factors. The hBMSCs/blood clot may, for example, be induced to differentiate into fibrocartilage upon stimulation by IGF-1 (and/or other chondroinductive factor(s)), at physiological concentration. Application of Wnt inhibitors such lorecivivint in the model allows study of the augmentation of chondrogenesis and/or reduction of fibrosis. The hBMSCs/blood clot is thereby induced to differentiate into fibrocartilage upon such stimulation. Lorecivivint and/or other Wnt inhibitor are added to the clot to study the augmentation of chondrogenesis and reduction of fibrosis.
B. In vitro model—chondrogenesis of hBMSCs/blood clot construct. hBMSCs/blood clots may, for example, be cultured in differentiation medium containing either 0, 10, 20, 50, or 100 ng/ml IGF-1. Lorecivivint may be introduced using the concentrations described above
Preparation of hBMSCs/blood clot construct. […]

[3] = tested on: in vitro-expanded human chondrocytes; experiment: Western blot analysis of human chondrocytes treated for 3 days; assay type: cell-based; settings: vs saline control (FIG. 2)
Source text: FIG. 2 illustrates Western blot analysis for human chondrocytes treated with saline control (CON) and lorecivivint (LRC) for 3 days.
In that regards, FIG. 3 illustrates post-MFx events including: A) clot formation; B) stem cell migration, C) fibrogenesis, D) chondrogenesis and bone healing, and E) degeneration. To facilitate rapid clinical translation, it is desirable to repurpose clinically proven. human-safe Wnt inhibitors. Specifically, the Wnt inhibitor lorecivivint (SM04690), which suppresses CDC-like kinase 2 (CLK2) and dual-specificity tyrosine phosphorylation-regulated kinase 1A (DYRK1A) as well as Wnt/β-catenin signaling, has shown promising results for knee osteoarthritis as discussed above. […] The reparative outcome of Wnt- (for example, lorecivivint-) enhanced MFx provides an avenue to achieve long-term hyaline cartilage repair with a minimally invasive and cost-effective procedure, unattainable by current surgical procedures.

humans = settings: cited from earlier work
[4] = cited from earlier work
hBMSC = settings: lorecivivint alone, cited from earlier work
[5] = single intraarticular injection; cited from earlier work
OA progression in rats = settings: intraarticular, 0.3 μg dissolved in 50 μl saline (~12 nM); cited from earlier work

| SMILES | chondrogenesis [1] | COL1 expression ([1]; compared to controls (FIG. 1A), p<0.05) | COL1 protein deposition ([1]; immunofluorescence, compared to controls (FIG. 1B)) | COL1 immunostaining ([2]; treated constructs) | COL1, 3, FN, α-SMA expression levels ([2]; vs untreated group) | COL2, AGG, SOX9, COMP, PRG4, and COL2/COL1 expression levels ([2]; vs untreated group) | COL1 expression [3] | safety of injection (humans) | solubility [4] [mM] | COL1 expression (hBMSC; hBMSC chondrogenesis) | initiation of hBMSC chondrogenesis (hBMSC) | knee joint residence time [5] [days] | OA progression (OA progression in rats) |
| --- | --- | --- | --- | --- | --- | --- | --- | --- | --- | --- | --- | --- | --- |
| Oc1nc(-c2ccc(C(F)(F)F)cc2)nc2c1CSCC2 [XAV939] | without impairing chondrogenesis | significantly lowers | significantly lowers |  |  |  |  |  |  |  |  |  |  |
| CC(C)CC(=O)Nc1cncc(-c2ccc3[nH]nc(-c4nc5cncc(-c6cccc(F)c6)c5[nH]4)c3c2)c1 [lorecivivint] |  |  |  | absent or localized only to the marginal regions | significantly lower | higher than untreated group | significantly reduced | safe | ~5 (≈ 2530 µg/mL) | minimal | sufficient to initiate hBMSC chondrogenesis | > 180 | significantly ameliorates |
